Here are results for four compounds from article PMC4754833, “Rilpivirine analogs potently inhibit drug-resistant HIV-1 mutants” (Retrovirology, 2016).

The structures appear in SMILES notation. A value given as a limit tells only on which side of the number the result lay.

For one test, the system named is HIV-1 RT mutant G190A. Put plainly: single round infection assay, G190A. The class given is cell-based. As to conditions: for IC50: Human immunodeficiency virus 1. Here is the method: (§1) The human osteosarcoma cell line, HOS, was obtained from Dr. Richard Schwartz (Michigan State University, East Lansing, MI) and grown in Dulbecco’s modified Eagle’s medium (Invitrogen, Carlsbad, CA) supplemented with 5 % (v/v) fetal bovine serum, 5 % newborn calf serum, and penicillin (50 units/ml) plus streptomycin (50 µg/ml; Quality Biological, Gaithersburg, MD). Virion production and single-round infectivity assays were used to determine antiviral activity (IC50 values) of the compounds as previously described.
(§2) pNLNgoMIVR-ΔEnv.LUC has been described previously. The RT open reading frame was removed from pNLNgoMIVR-ΔEnv.LUC (digestion with SpeI and SalI) and inserted between the SpeI and SalI sites of pBluescript II KS+. Using that construct as the wild-type template, we prepared the following HIV-1 RT mutants using the QuikChange II XL (Stratagene, La Jolla, CA) site-directed mutagenesis protocol kit: L100I, K103N, Y181C, Y188L, H221Y, K103N/Y181C, G190A, G190S, M230L, P236L, L100I/K103N, K103N/P225H, V106A/G190A/F227L, V106A, L234I, V106A/F227L, V106A/L234I, V106A/F227L/L234I, E40K, D67E, K101E, V111A, E138K, M184I, M184V, K101E/M184I, K101E/M184V, E138K/M184I, E138K/M184V, K101P, Y181I, and K101P/V179I. The following sense oligonucleotides were used with matching cognate antisense oligonucleotides (not shown) (Integrated DNA Technologies, Coralville, IA) in the mutagenesis: L100I, 5′-[…]-3′; L100I 2-103, 5′-[…]-3′; K103N, 5′-[…]-3′; Y181C, 5′-[…]-3′; Y188L, 5′-[…]-3′; H221Y, 5′-[…]-3′; G190A, 5′-[…]-3′; G190S, 5′-[…]-3′; P225H, 5′-[…]-3′; F227, 5′-[…]-3′; M230L, 5′-[…]-3′; P236L, 5′-[…]-3′; V106A, 5′-[…]-3′; L234I, 5′-[…]-3′; E40K, 5′-[…]-3′; D67E, 5′-[…]-3′; K101E, 5′-[…]-3′; V111A, 5′-[…]-3′; E138K, 5′-[…]-3′; M184I, 5′-[…]-3′; M184V, 5′-[…]-3′; K101P, 5′-[…]-3′; Y181I, 5′-[…]-3′; K101P/V179I, 5′-[…]-3′. The double mutants K103N/Y181C, K103N/P225H, and L100I/K103N were made using the previously generated K103N mutant and the appropriate oligonucleotides to add the second mutation, Y181C, P225, and L100I respectively. The double mutants V106A/F227L and V106A/L234I were prepared using the previously generated V106A mutant and the appropriate oligonucleotides to add the second mutation, F227L and L234I, respectively. The double mutants K101E/M184I and K101E/M184V were constructed using the previously generated K101E mutant and the appropriate oligonucleotides to add the second mutation, M184I and M184V, respectively. The double mutants E138K/M184I and E138K/M184V were constructed using the previously generated E138K mutant and the appropriate oligonucleotides for the second mutation, M184I and M184V, respectively. The triple mutant V106A/F227L/L234I was made using the previously generated V106A/F227L double mutant and the appropriate oligonucleotides for the third mutation, L234I. The triple mutant V106A/G190A/F227L was constructed in a series of steps using the previously generated V106A mutant and the appropriate oligonucleotides for the second mutation, G190A, to generate the double mutant V106A/G190A, and then the triple mutant was made using double mutant V106A/G190A and oligonucleotides for the third mutation, F227L. The DNA sequence of each construct was verified by DNA sequence determination. The sequences encoding the mutant RTs were then subcloned into pNLNgoMIVR-ΔEnv.LUC (between the KpnI and SalI sites) to produce the mutant HIV-1 constructs. These DNA sequences were also checked independently by DNA sequence determination.
(§3) 10.1186/s12977-016-0244-2 The IC50 values (nM) of RPV and the RPV analogs were determined against the NNRTI resistant mutants were measured by using a single round infection assay, n = 4. The concentrations (nM) are measured by reductions in luciferase reporter activity followed by the standard deviations. […]

Test [1] has as its system HIV-1 RT mutant V106A/F227L. The experiment in a line: single round infection assay, V106A/F227L. The class given is cell-based. As to conditions: for fold-change of IC50 of the mutant relative to WT: V106A/F227L vs WT; for IC50: ± SD, n=4. Here is the method: as §1, §2, §3
The next test concerns HIV-1 RT mutant K101E. The experiment in a line: single round infection assay, K101E. The class given is cell-based. As to conditions: for IC50: ± SD, n=4; for fold-change of IC50 of the mutant relative to WT: K101E vs WT. Here is the method:
as §1, §2, §3

In a further test the test system is HIV-1 RT mutant E138K. The experiment in a line: single round infection assay, E138K. To be noted: for fold-change of IC50 of the mutant relative to WT: E138K vs WT; for IC50: ± SD, n=4. The class given is cell-based. On the procedure: as §1, §2, §3
Test [2] relates to HIV-1 RT mutant K101E/M184I. The experiment in a line: single round infection assay, K101E/M184I. The class given is cell-based. To be noted: for IC50: ± SD, n=4; for fold-change of IC50 of the mutant relative to WT: K101E/M184I vs WT. On the procedure:
as §1, §2, §3

The test system of the next test is HIV-1 RT mutant K101P. The experiment in a line: single round infection assay, K101P. As to conditions: for IC50: Human immunodeficiency virus 1; for fold-change of IC50 of the mutant relative to WT: K101P vs WT. The class given is cell-based. On the procedure: as §1, §2, §3
The next test has as its system HIV-1 RT mutant Y181I. The experiment in a line: single round infection assay, Y181I. As to conditions: for IC50: Human immunodeficiency virus 1; for fold-change of IC50 of the mutant relative to WT: Y181I vs WT. In kind it is cell-based. On the procedure: as §1, §2, §3
The test system of another test is WT HIV-1. To be noted: previous study; cited from earlier work.
The test system of the next test is HIV-1 RT mutant L100I. Also on record: method as in PMID 23217210. As to conditions: previous study; cited from earlier work.
The subject of another test is HIV-1 RT mutant K103N. The arrangement: method as in PMID 23217210. To be noted: previous study; cited from earlier work.
Test [3] relates to HIV-1 RT mutant K101E/M184V. Put plainly: single round infection assay, K101E/M184V. In kind it is cell-based. As to conditions: K101E/M184V vs WT. On the procedure:
as §1, §2, §3

Setting [4] is: Human immunodeficiency virus 1, K101E.
Where [5] appears, read: Human immunodeficiency virus 1, E138K.
The mark [6] stands for this setting: Human immunodeficiency virus 1, K101E/M184I.
[7] abbreviates: Human immunodeficiency virus 1, V106A/F227L (selected by DOR).

For the compound `Cc1cc(/C=C/C#N)cc(C)c1Nc1nc(Nc2ccc(C#N)cc2)ncc1N` [compound 7], the IC50 in the test with HIV-1 RT mutant G190A was 0.3 nM; with HIV-1 RT mutant K101E (setting [4]), under 2.5 nM; in the test with HIV-1 RT mutant K101E (K101E) it was 2.3 ± 1.2 nM; in the test on HIV-1 RT mutant E138K (E138K), 1.6 ± 0.07 nM; in the test on HIV-1 RT mutant E138K (setting [5]), under 2.5 nM; in [2] (setting [6]), under 2.5 nM. Moreover, the IC50 is 1.3 ± 0.6 nM in [2] (K101E/M184I); 9 nM in the test with HIV-1 RT mutant K101P; 19 nM in the test with HIV-1 RT mutant Y181I; under 7 nM with WT HIV-1; under 7 nM in the test on HIV-1 RT mutant L100I; under 7 nM with HIV-1 RT mutant K103N. Also, the “fold-change of IC50 of the mutant relative to WT” value in test [1] is recorded as under 2; in the test with HIV-1 RT mutant K101E, 3; with HIV-1 RT mutant E138K, 2; in test [2], under 2; in the test with HIV-1 RT mutant K101P, 12; in the test on HIV-1 RT mutant Y181I, 24.

In the case of `Cc1cc(/C=C/C#N)cc(C)c1Nc1ncc([N+](=O)[O-])c(Nc2ccc(C#N)cc2)n1` [compound 8], the IC50 was 0.24 ± 0.04 nM with HIV-1 RT mutant G190A; under 5 nM in [1] (setting [7]); 6.3 ± 2 nM in [1] (V106A/F227L (selected by DOR)); 10.1 nM with HIV-1 RT mutant K101E (setting [4]); 3.4 nM with HIV-1 RT mutant E138K (E138K); under 6 nM in the test on HIV-1 RT mutant E138K (setting [5]). Besides, the IC50 was under 6 nM in [2] (setting [6]); 6 ± 1.6 nM in test [2] (K101E/M184I); 9.9 nM in the test on HIV-1 RT mutant K101P; 74.8 nM in the test with HIV-1 RT mutant Y181I; under 7 nM with WT HIV-1; under 7 nM in the test on HIV-1 RT mutant L100I. In addition, the IC50 with HIV-1 RT mutant K103N was under 7 nM. The “fold-change of IC50 of the mutant relative to WT” value stood at 4 in test [1]; 6 in the test on HIV-1 RT mutant K101E; 2 in the test on HIV-1 RT mutant E138K; 4 in test [2]; 6 in the test with HIV-1 RT mutant K101P; 47 in the test on HIV-1 RT mutant Y181I.

`Cc1cc(/C=C/C#N)cc(C)c1Nc1nc(Nc2ccc(C#N)cc2)c2nc[nH]c2n1` [compound 13]: the “fold-change of IC50 of the mutant relative to WT” value with HIV-1 RT mutant G190A (G190A vs WT) is given as under 2; in test [1], under 2; in the test on HIV-1 RT mutant K101E it was 4; in the test with HIV-1 RT mutant E138K, 5; in test [2], under 2; in test [3], 2. Moreover, the “fold-change of IC50 of the mutant relative to WT” value in the test on HIV-1 RT mutant K101P turned out to be 70; in the test on HIV-1 RT mutant Y181I, 5. The IC50 in the test with HIV-1 RT mutant G190A is 0.3 ± 0.04 nM; in the test on HIV-1 RT mutant K101P, 18.1 nM; in the test on HIV-1 RT mutant Y181I, 1.2 nM; with WT HIV-1 it was under 7 nM; in the test on HIV-1 RT mutant L100I, under 7 nM; in the test with HIV-1 RT mutant K103N, under 7 nM.

Turning to `Cc1cc(/C=C/C#N)cc(C)c1-n1cnc2cnc(Nc3ccc(C#N)cc3)nc21` [compound 27], the IC50 is 0.2 ± 0.1 nM with HIV-1 RT mutant G190A; under 5 nM in [1] (setting [7]); 2.9 ± 0.3 nM in test [1] (V106A/F227L (selected by DOR)); 1.3 ± 0.14 nM in the test with HIV-1 RT mutant E138K (E138K); under 2.5 nM with HIV-1 RT mutant E138K (setting [5]); 4.9 nM with HIV-1 RT mutant K101P. The IC50 was 23.1 nM in the test with HIV-1 RT mutant Y181I, under 7 nM in the test on WT HIV-1, under 7 nM with HIV-1 RT mutant L100I and under 7 nM in the test with HIV-1 RT mutant K103N. The “fold-change of IC50 of the mutant relative to WT” value in test [1] is given as 5; with HIV-1 RT mutant K101E, 2; in the test with HIV-1 RT mutant E138K it was 2; in test [3], under 2; in the test with HIV-1 RT mutant K101P it was 8; in the test on HIV-1 RT mutant Y181I it was 40.

Broadly, the IC50 is the point on the concentration scale where inhibition reaches its midpoint.
